Assay results from PubChem BioAssay AID1963851 (Molecular Pharmacology Branch, DTP, NCI, 2024).

Tested on: 188146-221-R-J1-PDC complex spheroid viability
Experiment: Anticancer human tumor 188146-221-R-J1-PDC patient-derived colon adenocarcinoma cell line growth inhibition [POLQ]
Conditions: for IC50: curve of first compound; for viability, T/C: stronger effect = lower value
Summary of the method: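 PDC + HUVEC + MSC complex spheroids; POLQ inhibitors ± partner drugs; top conc. at/near clinical Cmax, else 10 microM (SN-38 1 microM), half-log dilutions; 37 degrees C, 5% CO2.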

[1] = second compound 0.0316 µM, first compound 0.0316 µM
[2] = second compound 0.0316 µM, first compound 0.1 µM
[3] = second compound 0.0316 µM, first compound 0.316 µM
[4] = second compound 0.0316 µM, first compound 1 µM
[5] = second compound 0.0316 µM, first compound 3.16 µM
[6] = second compound 0.0316 µM, first compound 10 µM
[7] = second compound 0.1 µM, first compound 0.0316 µM
[8] = second compound 0.1 µM, first compound 0.1 µM
[9] = second compound 0.1 µM, first compound 0.316 µM
[10] = second compound 0.1 µM, first compound 1 µM
[11] = second compound 0.1 µM, first compound 3.16 µM
[12] = second compound 0.1 µM, first compound 10 µM
[13] = second compound 0.316 µM, first compound 0.0316 µM
[14] = second compound 0.316 µM, first compound 0.1 µM
[15] = second compound 0.316 µM, first compound 0.316 µM
[16] = second compound 0.316 µM, first compound 1 µM
[17] = second compound 0.316 µM, first compound 3.16 µM
[18] = second compound 0.316 µM, first compound 10 µM
[19] = second compound 1 µM, first compound 0.0316 µM
[20] = second compound 1 µM, first compound 0.1 µM
[21] = second compound 1 µM, first compound 0.316 µM
[22] = second compound 1 µM, first compound 1 µM
[23] = second compound 1 µM, first compound 3.16 µM
[24] = second compound 1 µM, first compound 10 µM
[25] = second compound 3.16 µM, first compound 0.0316 µM
[26] = second compound 3.16 µM, first compound 0.1 µM
[27] = second compound 3.16 µM, first compound 0.316 µM
[28] = second compound 3.16 µM, first compound 1 µM
[29] = second compound 3.16 µM, first compound 3.16 µM
[30] = second compound 3.16 µM, first compound 10 µM
[31] = second compound 10 µM, first compound 0.0316 µM
[32] = second compound 10 µM, first compound 0.1 µM
[33] = second compound 10 µM, first compound 0.316 µM
[34] = second compound 10 µM, first compound 1 µM
[35] = second compound 10 µM, first compound 3.16 µM
[36] = second compound 10 µM, first compound 10 µM
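Also: spheroids exposed to compounds for seven days.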
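For viability, T/C in this document: 100% = DMSO vehicle control viability.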

In the case of CCCS(=O)(=O)Nc1ccc(F)c(C(=O)c2c[nH]c3ncc(-c4ccc(Cl)cc4)cc23)c1F + COC1C(OC(N)=O)C(O)C(Oc2ccc3c(O)c(NC(=O)c4ccc(O)c(CC=C(C)C)c4)c(=O)oc3c2C)OC1(C)C, the IC50 (second compound 0.0316 µM) is reported as 5.54 µM, the IC50 (second compound 0.1 µM) is reported as 5.87 µM and the IC50 (second compound 0.316 µM) is reported as 4.88 µM. The IC50 (second compound 1 µM) was 5.62 µM, the IC50 (second compound 3.16 µM) was 7.78 µM and the IC50 (second compound 10 µM) was 5.25 µM. It also gave a viability, T/C [1] of 106%, a viability, T/C [2] of 92% and a viability, T/C [3] of 77.3%. It also gave a viability, T/C [4] of 76.3%, a viability, T/C [5] of 79.8% and a viability, T/C [6] of 27.5%. For the same compound, the viability, T/C [7] was 110%, the viability, T/C [8] was 102% and the viability, T/C [9] was 89%. The viability, T/C [10] was 89.8%, the viability, T/C [11] was 76.9% and the viability, T/C [12] was 29.7%. It also gave a viability, T/C [13] of 100%, a viability, T/C [14] of 89.5% and a viability, T/C [15] of 94.5%. The viability, T/C [16] was 79.7%, the viability, T/C [17] was 65.3% and the viability, T/C [18] was 26.8%. The viability, T/C [19] was 100%, the viability, T/C [20] was 96.2% and the viability, T/C [21] was 85.4%. It also gave a viability, T/C [22] of 84.7%, a viability, T/C [23] of 75.1% and a viability, T/C [24] of 27.4%. The viability, T/C [25] was 102%, the viability, T/C [26] was 103% and the viability, T/C [27] was 92.2%. It also gave a viability, T/C [28] of 72.3%, a viability, T/C [29] of 80.9% and a viability, T/C [30] of 41.2%. It also gave a viability, T/C [31] of 102%, a viability, T/C [32] of 90.2% and a viability, T/C [33] of 96.3%. For the same compound, the viability, T/C [34] was 78.2%, the viability, T/C [35] was 72.7% and the viability, T/C [36] was 26%.

For O=C(c1cc(Cc2n[nH]c(=O)c3ccccc23)ccc1F)N1CCN(C(=O)C2CC2)CC1 + Cc1cccc(N(C)C(=O)C2C(O)CCN2c2nc(C)cc(C(F)(F)F)c2C#N)c1, the IC50 (second compound 0.0316 µM) was > 10 µM, the IC50 (second compound 0.1 µM) was > 10 µM and the IC50 (second compound 0.316 µM) was > 10 µM. The IC50 (second compound 1 µM) was > 10 µM, the IC50 (second compound 3.16 µM) was > 10 µM and the IC50 (second compound 10 µM) was > 10 µM. It also gave a viability, T/C [1] of 109%, a viability, T/C [2] of 105% and a viability, T/C [3] of 108%. The viability, T/C [4] was 92.8%, the viability, T/C [5] was 93.9% and the viability, T/C [6] was 73.9%. It also gave a viability, T/C [7] of 108%, a viability, T/C [8] of 103% and a viability, T/C [9] of 101%. It also gave a viability, T/C [10] of 101%, a viability, T/C [11] of 89.5% and a viability, T/C [12] of 88.8%. The viability, T/C [13] was 105%, the viability, T/C [14] was 102% and the viability, T/C [15] was 95.6%. The viability, T/C [16] was 101%, the viability, T/C [17] was 90.2% and the viability, T/C [18] was 77.8%. The viability, T/C [19] was 109%, the viability, T/C [20] was 106% and the viability, T/C [21] was 96.7%. For the same compound, the viability, T/C [22] was 103%, the viability, T/C [23] was 87.7% and the viability, T/C [24] was 78.4%. The viability, T/C [25] was 89.5%, the viability, T/C [26] was 102% and the viability, T/C [27] was 106%. The viability, T/C [28] was 86.7%, the viability, T/C [29] was 93.1% and the viability, T/C [30] was 76.9%. The viability, T/C [31] was 99.8%, the viability, T/C [32] was 90.1% and the viability, T/C [33] was 96.3%. It also gave a viability, T/C [34] of 98.2%, a viability, T/C [35] of 95.6% and a viability, T/C [36] of 82.1%.
